Laboratory results published in paper PMC11791039, “A split intein and split luciferase-coupled system for detecting protein-protein interactions” (Molecular Systems Biology, 2024).
Where “and” joins values, the source holds several entries; their conditions need not be identical. Equal values may be shown once. Read-outs that look alike come from different tables or passages of the source. Blank lines part the entries; values can stand above or below the compound they belong to. Residues, ends and D or L forms follow the SMILES beside them. *: point of attachment. Cbz = O=C(OCc1ccccc1)*

What was measured:
[1] = target: T1, EGFR(L858R)/SHC1 (Homo sapiens, UniProt P00533, L858R); assay: SIMPL2 assay EGFR(L858R)/SHC1; type: cell-based; settings: replicates 1-4
T1 construct: β10-IN (tNLuc β10 peptide + GP41-1 split intein N fragment) (C); V5; expressed in transfected cells

[2] = target: T2, EGFR(WT)/SHC1 (Homo sapiens, UniProt P00533); assay: Western blot of EGFR(WT)-SHC1 splicing; type: cell-based; settings: inhibitor 100 nM, 16 h
T2 construct: β10-IN (tNLuc β10 peptide + GP41-1 split intein N fragment) (C); V5; expressed in transfected cells

[3] = target: T1, EGFR(L858R)/SHC1; assay: Western blot of EGFR(L858R)-SHC1 splicing; type: cell-based; settings: inhibitor 100 nM, 16 h
[4] = target: T2, EGFR(WT)/SHC1; assay: SIMPL2 assay EGFR(WT)/SHC1; type: cell-based; settings: replicates 1-4;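 also: 0% is no doxycycline or compound and 100% is doxycycline without compound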
[5] = target: T3, control (Homo sapiens, UniProt P01116, G12C); assay: SIMPL2 assay, control of Fig. 3B-D; type: cell-based; settings: replicates 1-4
T3 construct: IC-β9 (GP41-1 split intein C fragment + tNLuc β9 peptide) (N); FLAG; expressed in transfected cells
T3 sequence (P01116 1-185 isoform P01116-2 G12C limits assumed): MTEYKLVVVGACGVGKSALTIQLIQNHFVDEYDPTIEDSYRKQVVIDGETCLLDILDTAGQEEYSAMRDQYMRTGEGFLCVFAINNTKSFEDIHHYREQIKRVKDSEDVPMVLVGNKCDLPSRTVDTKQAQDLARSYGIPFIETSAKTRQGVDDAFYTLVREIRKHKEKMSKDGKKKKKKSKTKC

[6] = target: T4, BRD4/CRBN interaction (Homo sapiens, UniProt O60885+Q96SW2); assay: SIMPL2 assay CRBN/BRD4 (PROTAC); type: cell-based; settings: MG132 1 μM, ARV-825 3 h
T4 construct: β10-IN (tNLuc β10 peptide + GP41-1 split intein N fragment) (N); V5; IC-β9 (GP41-1 split intein C fragment + tNLuc β9 peptide) (N); FLAG; expressed in transfected cells
T4 sequence (Q96SW2 whole entry, the tested form may be a part): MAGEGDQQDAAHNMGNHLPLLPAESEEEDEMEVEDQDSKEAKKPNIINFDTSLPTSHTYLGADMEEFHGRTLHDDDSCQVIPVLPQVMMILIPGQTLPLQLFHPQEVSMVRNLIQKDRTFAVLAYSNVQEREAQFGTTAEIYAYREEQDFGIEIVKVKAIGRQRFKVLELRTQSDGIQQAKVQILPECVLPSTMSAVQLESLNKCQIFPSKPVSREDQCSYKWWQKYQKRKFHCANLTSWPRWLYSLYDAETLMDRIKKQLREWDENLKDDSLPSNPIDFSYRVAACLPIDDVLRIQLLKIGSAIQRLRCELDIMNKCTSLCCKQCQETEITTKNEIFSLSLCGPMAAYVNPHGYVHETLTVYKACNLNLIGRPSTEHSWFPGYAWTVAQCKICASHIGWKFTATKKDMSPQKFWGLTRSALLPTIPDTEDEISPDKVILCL
T4 sequence (Q16531 whole entry, further chain, the tested form may be a part): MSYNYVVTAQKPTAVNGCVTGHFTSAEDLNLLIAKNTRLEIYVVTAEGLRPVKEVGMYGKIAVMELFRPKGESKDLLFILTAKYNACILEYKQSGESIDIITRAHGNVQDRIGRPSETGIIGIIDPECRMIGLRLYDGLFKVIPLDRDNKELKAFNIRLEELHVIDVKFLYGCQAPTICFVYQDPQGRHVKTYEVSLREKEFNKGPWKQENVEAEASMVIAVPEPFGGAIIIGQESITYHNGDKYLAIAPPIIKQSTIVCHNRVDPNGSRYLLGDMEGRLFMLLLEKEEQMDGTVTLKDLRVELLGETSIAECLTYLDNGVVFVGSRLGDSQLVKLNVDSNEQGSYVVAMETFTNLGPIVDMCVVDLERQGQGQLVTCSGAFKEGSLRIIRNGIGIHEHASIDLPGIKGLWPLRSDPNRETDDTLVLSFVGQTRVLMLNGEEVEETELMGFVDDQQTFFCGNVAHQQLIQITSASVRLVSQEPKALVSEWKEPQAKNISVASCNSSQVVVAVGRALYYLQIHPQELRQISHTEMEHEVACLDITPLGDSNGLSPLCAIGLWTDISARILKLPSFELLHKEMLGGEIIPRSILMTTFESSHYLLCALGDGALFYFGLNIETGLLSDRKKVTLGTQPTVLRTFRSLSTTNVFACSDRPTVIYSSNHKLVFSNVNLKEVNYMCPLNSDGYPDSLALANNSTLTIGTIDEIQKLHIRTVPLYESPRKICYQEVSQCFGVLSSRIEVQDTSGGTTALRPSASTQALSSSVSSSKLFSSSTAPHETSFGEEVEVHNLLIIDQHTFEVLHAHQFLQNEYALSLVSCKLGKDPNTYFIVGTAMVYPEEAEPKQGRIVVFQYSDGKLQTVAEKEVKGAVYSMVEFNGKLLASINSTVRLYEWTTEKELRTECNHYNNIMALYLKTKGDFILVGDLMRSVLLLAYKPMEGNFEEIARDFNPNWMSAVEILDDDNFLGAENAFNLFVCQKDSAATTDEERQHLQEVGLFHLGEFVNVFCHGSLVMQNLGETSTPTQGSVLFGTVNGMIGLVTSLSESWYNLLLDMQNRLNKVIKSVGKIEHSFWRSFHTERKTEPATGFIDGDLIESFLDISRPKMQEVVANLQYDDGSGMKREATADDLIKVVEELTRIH

[7] = target: T5, FRB/FKBP1A interaction (Homo sapiens, UniProt P42345+P62942); parameters: method as in previous study; settings: replicates 1-4, ref previous study, cited from earlier work; for ELISA signal (Fig. EV1B): IN/IC format; for ELISA_CIC signal (Fig. EV1C): NIN/IC format
T5 sequence (P42345 2012-2144 limits assumed): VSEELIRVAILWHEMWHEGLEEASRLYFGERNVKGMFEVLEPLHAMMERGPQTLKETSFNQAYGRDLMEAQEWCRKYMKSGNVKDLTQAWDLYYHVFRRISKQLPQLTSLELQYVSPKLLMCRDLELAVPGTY
T5 sequence (P62942 whole entry): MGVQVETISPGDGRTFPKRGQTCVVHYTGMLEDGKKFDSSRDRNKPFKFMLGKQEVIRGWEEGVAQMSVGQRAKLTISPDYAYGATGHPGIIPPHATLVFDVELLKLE

[8] = target: T5, FRB/FKBP1A interaction; assay: NanoBiT assay, rapamycin-mediated FRB/FKBP1A interaction; type: cell-based; settings: 2 h, expt 1-4
[9] = target: T5, FRB/FKBP1A interaction; assay: SIMPL2 assay, rapamycin-mediated FRB/FKBP1A interaction; settings: for SIMPL2 signal (Fig. EV1B): IN/IC format, replicates 1-4; for SIMPL2(%) (Fig. EV1C): NIN/IC format, replicates 1-3; for SIMPL2 signal (Fig. 1D source data): 2 h, expt 1-4

Compound: COc1cc2ncnc(Nc3cccc(Cl)c3)c2cc1OC [AG1478]
- SIMPL2 signal, L858R (Fig. 3B) ([1]; AG1478 6.4e-6 uM): 91.6588 and 97.6255 and 114.285 and 112.912
- SIMPL2 signal, L858R (Fig. 3B) ([1]; AG1478 3.2e-5 uM): 89.0187 and 76.3196 and 106.708 and 96.4903
- SIMPL2 signal, L858R (Fig. 3B) ([1]; AG1478 0.00016 uM): 80.0422 and 76.3461 and 104.596 and 91.474
- SIMPL2 signal, L858R (Fig. 3B) ([1]; AG1478 0.0008 uM): 78.2733 and 74.7356 and 79.963 and 75.2372
- SIMPL2 signal, L858R (Fig. 3B) ([1]; AG1478 0.004 uM): 44.1628 and 44.3476 and 45.9581 and 41.1531
- SIMPL2 signal, L858R (Fig. 3B) ([1]; AG1478 0.02 uM): 13.9069 and 29.2725 and 26.9756 and 25.1011
- SIMPL2 signal, L858R (Fig. 3B) ([1]; AG1478 0.1 uM): 16.4414 and 17.2863 and 10.8707 and 9.471
- SIMPL2 signal, L858R (Fig. 3B) ([1]; AG1478 0.5 uM): 3.505 and 4.482 and 4.93 and 3.98
- splicing between EGFR(WT) and SHC1 (western blot) [2]: reduced or abolished
- splicing between EGFR(L858R) and SHC1 (western blot) [3]: reduced or abolished
- SIMPL2 signal, WT (Fig. 3B) ([4]; AG1478 6.4e-6 uM): 102.427 and 84.7059 and 104.371 and 106.871
- SIMPL2 signal, WT (Fig. 3B) ([4]; AG1478 3.2e-5 uM): 77.5953 and 99.0938 and 89.9278 and 95.7607
- SIMPL2 signal, WT (Fig. 3B) ([4]; AG1478 0.00016 uM): 73.3734 and 100.927 and 94.8163 and 93.2609
- SIMPL2 signal, WT (Fig. 3B) ([4]; AG1478 0.0008 uM): 88.6501 and 85.7058 and 98.1494 and 104.871
- SIMPL2 signal, WT (Fig. 3B) ([4]; AG1478 0.004 uM): 74.54 and 81.3728 and 67.2627 and 74.6511
- SIMPL2 signal, WT (Fig. 3B) ([4]; AG1478 0.02 uM): 70.0958 and 71.7624 and 65.6517 and 61.8742
- SIMPL2 signal, WT (Fig. 3B) ([4]; AG1478 0.1 uM): 65.485 and 59.9854 and 59.7632 and 57.8189
- SIMPL2 signal, WT (Fig. 3B) ([4]; AG1478 0.5 uM): 29.8764 and 30.6541 and 19.6549 and 21.0437
- SIMPL2 signal, control (Fig. 3B) ([5]; AG1478 6.4e-6 uM): 78.4402 and 101.308 and 94.2905 and 84.6604
- SIMPL2 signal, control (Fig. 3B) ([5]; AG1478 3.2e-5 uM): 100.905 and 96.8875 and 97.961 and 100.282
- SIMPL2 signal, control (Fig. 3B) ([5]; AG1478 0.00016 uM): 91.8672 and 101.363 and 100.305 and 106.707
- SIMPL2 signal, control (Fig. 3B) ([5]; AG1478 0.0008 uM): 94.4089 and 99.0424 and 101.553 and 109.943
- SIMPL2 signal, control (Fig. 3B) ([5]; AG1478 0.004 uM): 91.5435 and 102.468 and 100.85 and 97.0453
- SIMPL2 signal, control (Fig. 3B) ([5]; AG1478 0.02 uM): 77.4062 and 87.6599 and 89.9806 (2×)
- SIMPL2 signal, control (Fig. 3B) ([5]; AG1478 0.1 uM): 82.8606 and 100.092 and 105.918 and 87.8651
- SIMPL2 signal, control (Fig. 3B) ([5]; AG1478 0.5 uM): 102.547 and 94.4247 and 100.724 and 111.159

Compound: CC(C)C[C@@H](C=O)NC(=O)[C@H](CC(C)C)NC(=O)[C@H](CC(C)C)NC(=O)OCc1ccccc1 [MG132] (Cbz-Leu-Leu-Leu-aldehyde)
- effect of MG132 co-treatment on ARV-825 SIMPL2 signals [6]: profoundly enhanced

- SIMPL2 signal (Fig. EV1B) ([9]; Rapa 0.0508 nM): 1.191 and 2.558 and 1.039 and 2.309
- SIMPL2 signal (Fig. EV1B) ([9]; Rapa 0.152 nM): 2.258 and 4.019 and 1.902 and 3.528
- SIMPL2 signal (Fig. EV1B) ([9]; Rapa 0.457 nM): 5.806 and 9.209 and 5.031 and 7.8055
- SIMPL2(%) (Fig. EV1C) ([9]; Rapa 0.00188 nM): 0.8086% (2×) and 0.8386%
- SIMPL2(%) (Fig. EV1C) ([9]; Rapa 0.00565 nM): 0.599% and 0.6888% and 0.7487%
- SIMPL2(%) (Fig. EV1C) ([9]; Rapa 0.0508 nM): 0.9284% and 1.198% and 0.7188%
- SIMPL2(%) (Fig. EV1C) ([9]; Rapa 0.152 nM): 1.108% and 1.6472% and 0.8685%
- SIMPL2(%) (Fig. EV1C) ([9]; Rapa 0.457 nM): 4.972% and 3.534% and 2.636%
- SIMPL2(%) (Fig. EV1C) ([9]; Rapa 1.372 nM): 23.3303% and 15.2441% and 11.9197%
- SIMPL2(%) (Fig. EV1C) ([9]; Rapa 4.115 nM): 44.1749% and 37.1968% and 29.3801%
- SIMPL2(%) (Fig. EV1C) ([9]; Rapa 37.037 nM): 91.9736% and 88.0503% and 89.0686%
- SIMPL2(%) (Fig. EV1C) ([9]; Rapa 111.111 nM): 100.449% and 91.6442% and 102.935%
- SIMPL2(%) (Fig. EV1C) ([9]; Rapa 333.333 nM): 113.267% and 99.5508% and 95.867%
- SIMPL2(%) (Fig. EV1C) ([9]; Rapa 1000 nM): 95.5076% and 93.0518% and 96.2564%
Compound: CO[C@H]1C[C@@H]2CC[C@@H](C)[C@@](O)(O2)C(=O)C(=O)N2CCCC[C@H]2C(=O)O[C@H]([C@H](C)C[C@@H]2CC[C@@H](O)[C@H](OC)C2)CC(=O)[C@H](C)/C=C(\C)[C@@H](O)[C@@H](OC)C(=O)[C@H](C)C[C@H](C)/C=C/C=C/C=C/1C [rapamycin, Rapamycin]
- ELISA signal (Fig. EV1B) ([7]; Rapa 0.316 nM): 14.411 and 5.166 and 5.566 and 4.9879
- ELISA signal (Fig. EV1B) ([7]; Rapa 1 nM): 5.323 and 5.028 and 5.963 and 6.1023
- ELISA signal (Fig. EV1B) ([7]; Rapa 3.162 nM): 8.457 and 7.647 and 8.056 and 8.736
- ELISA signal (Fig. EV1B) ([7]; Rapa 10 nM): 15.9974 and 15.1146 and 16.574 and 16.0467
- ELISA signal (Fig. EV1B) ([7]; Rapa 31.623 nM): 37.8238 and 37.9493 and 40.1437 and 41.1072
- ELISA signal (Fig. EV1B) ([7]; Rapa 100 nM): 80.3098 and 67.0371 and 79.2492 and 77.5358
- ELISA signal (Fig. EV1B) ([7]; Rapa 316.228 nM): 106.072 and 95.5962 and 92.0797 and 90.9967
- ELISA signal (Fig. EV1B) ([7]; Rapa 1000 nM): 102.194 and 105.027 and 90.2049 and 93.6363
- ELISA_CIC signal (Fig. EV1C) ([7]; Rapa 0.3 nM): 3.444 and 2.886 and 2.936 and 2.873
- ELISA_CIC signal (Fig. EV1C) ([7]; Rapa 1 nM): 3.091 and 2.372 and 3.062 and 3.035
- ELISA_CIC signal (Fig. EV1C) ([7]; Rapa 3 nM): 3.502 and 3.836 and 3.666 and 4.333
- ELISA_CIC signal (Fig. EV1C) ([7]; Rapa 10 nM): 6.943 and 6.073 and 6.559 and 6.143
- ELISA_CIC signal (Fig. EV1C) ([7]; Rapa 30 nM): 20.4969 and 16.4946 and 19.9923 and 21.7284
- ELISA_CIC signal (Fig. EV1C) ([7]; Rapa 100 nM): 72.9918 and 58.0659 and 78.6932 and 64.2948
- ELISA_CIC signal (Fig. EV1C) ([7]; Rapa 300 nM): 105.102 and 112.879 and 88.9461
- ELISA_CIC signal (Fig. EV1C) ([7]; Rapa 1000 nM): 95.1776 and 93.559 and 93.0646 and 80.9326
- NanoBiT signal (Fig. 1D source data) ([8]; Rapa 0.004115 uM): 43.0075 and 49.8338 and 39.8143 and 26.5473
- NanoBiT signal (Fig. 1D source data) ([8]; Rapa 0.037037 uM): 98.7034 and 104.835 and 107.555 and 86.8025
- NanoBiT signal (Fig. 1D source data) ([8]; Rapa 0.111111 uM): 98.0138 and 85.7365 and 105.867 and 81.894
- NanoBiT signal (Fig. 1D source data) ([8]; Rapa 0.333333 uM): 102.818 and 83.4071 and 80.4272 and 114.561
- NanoBiT signal (Fig. 1D source data) ([8]; Rapa 1 uM): 95.0191 and 104.766 and 93.7327 and 91.3484
- SIMPL2 signal (Fig. EV1B) ([9]; Rapa 1.372 nM): 16.8705 and 22.7506 and 15.2406 and 19.2387
- SIMPL2 signal (Fig. EV1B) ([9]; Rapa 4.115 nM): 40.6804 and 51.3157 and 39.8638 and 45.1426
- SIMPL2 signal (Fig. EV1B) ([9]; Rapa 37.037 nM): 89.8203 and 93.2241 and 91.2356 and 88.6383
- SIMPL2 signal (Fig. EV1B) ([9]; Rapa 111.111 nM): 100.397 and 91.658 and 100.471 and 94.6121
- SIMPL2 signal (Fig. EV1B) ([9]; Rapa 333.333 nM): 99.7113 and 97.9264 and 105.182 and 96.7419
- SIMPL2 signal (Fig. EV1B) ([9]; Rapa 1000 nM): 92.6509 and 96.5256 and 102.635 and 100.443
- SIMPL2 signal (Fig. 1D source data) ([9]; Rapa 0.004115 uM): 47.8958 and 45.8282 and 46.7693 and 41.1245
- SIMPL2 signal (Fig. 1D source data) ([9]; Rapa 0.037037 uM): 84.8088 and 98.4637 and 120.48 and 94.9462
- SIMPL2 signal (Fig. 1D source data) ([9]; Rapa 0.111111 uM): 73.556 and 88.7889 and 90.3886 and 92.8218
- SIMPL2 signal (Fig. 1D source data) ([9]; Rapa 0.333333 uM): 97.7898 and 102.816 and 106.133 and 97.0409
- SIMPL2 signal (Fig. 1D source data) ([9]; Rapa 1 uM): 104.171 and 101.443 and 85.3933 and 107.112
